This passage reports EC50 and CC50 results from patent publication US20230355626A1, “INHIBITORS OF HUMAN IMMUNODEFICIENCY VIRUS REPLICATION” (VIIV HEALTHCARE UK (NO.5) LIMITED, priority 2020, published 2023).

The structures appear in SMILES notation. pEC50: −log10 of the molar value.

One data set has as its system recombinant NL4-3 virus. Nature of the data set: HIV cell culture assay (antiviral activity, luciferase readout in infected MT-2 cells). In kind it is cell-based. The note with it: Human immunodeficiency virus 1, NL43, MT2. Put shortly: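 MT-2 cells infected for 4-5 days with 293T-derived NL4-3 reporter virus (nef partly replaced by Renilla luciferase) in serial compound dilutions. Live-cell luciferase read-out. EC50 from median effect equation fit.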

The nature of data set [1]: Compound cytotoxicity, XTT-based colorimetric assay. In kind it is cell-based. The note with it: human; uninfected MT2 cells, day 4, XTT assay. The method, boiled down: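 Follows the antiviral assay procedure, but with uninfected MT2 cells. On day 4, cell viability is measured by XTT-based colorimetry, giving CC50 values.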
A general note: Formazan colour is commonly taken as a measure of viable cells.

As for `Cn1nc(NS(C)(=O)=O)c2c(Cl)ccc(-n3c([C@H](Cc4cc(F)cc(F)c4)NC(=O)Cn4nc(C(F)F)c5c4C(F)(F)[C@@H]4C[C@H]54)nc4nc(OCCC(C)(C)C(F)(F)F)ccc4c3=O)c21` (atropisomer, axis not shown; (P)) [Example 4, N-((S)-1-((3P)-3-(4-chloro-1-methyl-3-(methylsulfonamido)-1H-indazol-7-yl)-4-oxo-7-(4,4,4-trifluoro-3,3-dimethylbutoxy)-3,4-dihydropyrido[2,3-d]pyrimidin-2-yl)-2-(3,5-difluorophenyl)ethyl)-2-((3bS,4aR)-3-(difluoromethyl)-5,5-difluoro-3b,4,4a,5-tetrahydro-1H-cyclopropa[3,4]cyclopenta[1,2-c]pyrazol-1-yl)acetamide], in the data set on recombinant NL4-3 virus, the negative logarithm of the EC50 (pEC50) (in general, the negative decadic logarithm of the EC50, by convention in mol/L) was 10.11. Also, the CC50 (commonly the concentration at which the toxic effect on the cells reaches its halfway point) at 4 day in data set [1] was over 200 nM.
In the same order, the values of `Cn1nc(NS(C)(=O)=O)c2c(Cl)ccc(-n3c([C@H](Cc4cc(F)cc(F)c4)NC(=O)Cn4nc(C(F)F)c5c4C(F)(F)[C@@H]4C[C@H]54)nc4nc(OCc5cccc(C(F)(F)F)n5)ccc4c3=O)c21` (atropisomer, axis not shown; (P)) [Example 22, N-((S)-1-((3P)-3-(4-chloro-1-methyl-3-(methylsulfonamido)-1H-indazol-7-yl)-4-oxo-7-((6-(trifluoromethyl)pyridin-2-yl)methoxy)-3,4-dihydropyrido[2,3-d]pyrimidin-2-yl)-2-(3,5-difluorophenyl)ethyl)-2-((3bS,4aR)-3-(difluoromethyl)-5,5-difluoro-3b,4,4a,5-tetrahydro-1H-cyclopropa[3,4]cyclopenta[1,2-c]pyrazol-1-yl)acetamide] are 10.26 and over 100 nM.
In the same order, the values of `COCCCCCOc1ccc2c(=O)n(-c3ccc(Cl)c4c(NS(C)(=O)=O)nn(C)c34)c([C@H](Cc3cc(F)cc(F)c3)NC(=O)Cn3nc(C(F)F)c4c3C(F)(F)[C@@H]3C[C@H]43)nc2n1` (atropisomer, axis not shown; (P)) [Example 17, N-((S)-1-((3P)-3-(4-chloro-1-methyl-3-(methylsulfonamido)-1H-indazol-7-yl)-7-((5-methoxypentyl)oxy)-4-oxo-3,4-dihydropyrido[2,3-d]pyrimidin-2-yl)-2-(3,5-difluorophenyl)ethyl)-2-((3bS,4aR)-3-(difluoromethyl)-5,5-difluoro-3b,4,4a,5-tetrahydro-1H-cyclopropa[3,4]cyclopenta[1,2-c]pyrazol-1-yl)acetamide] are 10.34 and over 100 nM.
Turning to `Cn1nc(NS(C)(=O)=O)c2c(Cl)ccc(-n3c([C@H](Cc4cc(F)cc(F)c4)NC(=O)Cn4nc(C(F)F)c5c4C(F)(F)[C@@H]4C[C@H]54)nc4nc(OCC(F)(F)C(F)(F)C(F)(F)C(F)(F)F)ccc4c3=O)c21` (atropisomer, axis not shown; (P)) [Example 40, N-((S)-1-((3P,3P)-3-(4-chloro-1-methyl-3-(methylsulfonamido)-1H-indazol-7-yl)-7-((2,2,3,3,4,4,5,5,5-nonafluoropentyl)oxy)-4-oxo-3,4-dihydropyrido[2,3-d]pyrimidin-2-yl)-2-(3,5-difluorophenyl)ethyl)-2-((3bS,4aR)-3-(difluoromethyl)-5,5-difluoro-3b,4,4a,5-tetrahydro-1H-cyclopropa[3,4]cyclopenta[1,2-c]pyrazol-1-yl)acetamide], the pEC50 with recombinant NL4-3 virus is 9.51. Moreover, in data set [1], the 50% cytotoxic concentration (CC50) at 4 day is over 100 nM.
Turning to `Cn1nccc1CCOc1ccc2c(=O)n(-c3ccc(Cl)c4c(NS(C)(=O)=O)nn(C)c34)c([C@H](Cc3cc(F)cc(F)c3)NC(=O)Cn3nc(C(F)F)c4c3C(F)(F)[C@@H]3C[C@H]43)nc2n1` (atropisomer, axis not shown; (P)) [Example 14, N-((R)-1-((3P,3P)-3-(4-chloro-1-methyl-3-(methylsulfonamido)-1H-indazol-7-yl)-7-(2-(1-methyl-1H-pyrazol-5-yl)ethoxy)-4-oxo-3,4-dihydropyrido[2,3-d]pyrimidin-2-yl)-2-(3,5-difluorophenyl)ethyl)-2-((3bS,4aR)-3-(difluoromethyl)-5,5-difluoro-3b,4,4a,5-tetrahydro-1H-cyclopropa[3,4]cyclopenta[1,2-c]pyrazol-1-yl)acetamide], the negative-log EC50 (pEC50) in the data set with recombinant NL4-3 virus was 10.21. Besides, the 50% cytotoxic concentration (CC50) at 4 day in data set [1] was over 500 nM.
For `Cn1nc(NS(C)(=O)=O)c2c(Cl)ccc(-n3c([C@H](Cc4cc(F)cc(F)c4)NC(=O)Cn4nc(C(F)F)c5c4C(F)(F)[C@@H]4C[C@H]54)nc4nc(OCCOC5CC5(F)F)ccc4c3=O)c21` (stereo partly drawn) [Example 34, N-((1S)-1-((3P,3P)-3-(4-chloro-1-methyl-3-(methylsulfonamido)-1H-indazol-7-yl)-7-(2-(2,2-difluorocyclopropoxy)ethoxy)-4-oxo-3,4-dihydropyrido[2,3-d]pyrimidin-2-yl)-2-(3,5-difluorophenyl)ethyl)-2-((3bS,4aR)-3-(difluoromethyl)-5,5-difluoro-3b,4,4a,5-tetrahydro-1H-cyclopropa[3,4]cyclopenta[1,2-c]pyrazol-1-yl)acetamide], in that order: 10.46 and over 100 nM.
For `Cn1nc(NS(C)(=O)=O)c2c(Cl)ccc(-n3c([C@H](Cc4cc(F)cc(F)c4)NC(=O)Cn4nc(C(F)F)c5c4C(F)(F)[C@@H]4C[C@H]54)nc4nc(OCC5(C(F)(F)F)CC5)ccc4c3=O)c21` (atropisomer, axis not shown; (P)) [Example 21, N-((S)-1-((3P)-3-(4-chloro-1-methyl-3-(methylsulfonamido)-1H-indazol-7-yl)-4-oxo-7-((1-(trifluoromethyl)cyclopropyl)methoxy)-3,4-dihydropyrido[2,3-d]pyrimidin-2-yl)-2-(3,5-difluorophenyl)ethyl)-2-((3bS,4aR)-3-(difluoromethyl)-5,5-difluoro-3b,4,4a,5-tetrahydro-1H-cyclopropa[3,4]cyclopenta[1,2-c]pyrazol-1-yl)acetamide], in that order: 10.34 and over 500 nM.
In the same order, the values of `Cn1nc(NS(C)(=O)=O)c2c(Cl)ccc(-n3c([C@H](Cc4cc(F)cc(F)c4)NC(=O)Cn4nc(C(F)F)c5c4C(F)(F)[C@@H]4C[C@H]54)nc4nc(OCCC5CC5(F)F)ccc4c3=O)c21` (stereo partly drawn) [Example 38, N-((1S)-1-((3P,3P)-3-(4-chloro-1-methyl-3-(methylsulfonamido)-1H-indazol-7-yl)-7-(2-(2,2-difluorocyclopropyl)ethoxy)-4-oxo-3,4-dihydropyrido[2,3-d]pyrimidin-2-yl)-2-(3,5-difluorophenyl)ethyl)-2-((3bS,4aR)-3-(difluoromethyl)-5,5-difluoro-3b,4,4a,5-tetrahydro-1H-cyclopropa[3,4]cyclopenta[1,2-c]pyrazol-1-yl)acetamide] are 10.43 and over 100 nM.
For the compound `Cn1nc(NS(C)(=O)=O)c2c(Cl)ccc(-n3c([C@H](Cc4cc(F)cc(F)c4)NC(=O)Cn4nc(C(F)F)c5c4C(F)(F)[C@@H]4C[C@H]54)nc4nc(OCc5cccnc5)ccc4c3=O)c21` (atropisomer, axis not shown; (P)) [Example 3, N-[(1S)-1-[(3P)-3-(4-chloro-3-methanesulfonamido-1-methyl-1H-indazol-7-yl)-4-oxo-7-[(pyridin-3-yl)methoxy]-3H,4H-pyrido[2,3-d]pyrimidin-2-yl]-2-(3,5-difluorophenyl)ethyl]-2-[(2S,4R)-9-(difluoromethyl)-5,5-difluoro-7,8-diazatricyclo[4.3.0.0^2,^4]nona-1(6),8-dien-7-yl]acetamide], in the data set with recombinant NL4-3 virus, the pEC50 was 10.32. The compound further yielded a CC50 at 4 day in data set [1] of over 100 nM.
In the same order, the values of `Cn1nc(NS(C)(=O)=O)c2c(Cl)ccc(-n3c([C@H](Cc4cc(F)cc(F)c4)NC(=O)Cn4nc(C(F)F)c5c4C(F)(F)[C@@H]4C[C@H]54)nc4nc(OC5CC=CC5)ccc4c3=O)c21` (atropisomer, axis not shown; (P)) [Example 1, N-((S)-1-((3P)-3-(4-chloro-1-methyl-3-(methylsulfonamido)-1H-indazol-7-yl)-7-(cyclopent-3-en-1-yloxy)-4-oxo-3,4-dihydropyrido[2,3-d]pyrimidin-2-yl)-2-(3,5-difluorophenyl)ethyl)-2-((3bS,4aR)-3-(difluoromethyl)-5,5-difluoro-3b,4,4a,5-tetrahydro-1H-cyclopropa[3,4]cyclopenta[1,2-c]pyrazol-1-yl)acetamide] are 10.62 and over 100 nM.
In the same order, the values of `Cn1nc(NS(C)(=O)=O)c2c(Cl)ccc(-n3c([C@H](Cc4cc(F)cc(F)c4)NC(=O)Cn4nc(C(F)F)c5c4C(F)(F)[C@@H]4C[C@H]54)nc4nc(OCCOCC(F)(F)C(F)(F)F)ccc4c3=O)c21` (atropisomer, axis not shown; (P)) [Example 20, N-((S)-1-((3P)-3-(4-chloro-1-methyl-3-(methylsulfonamido)-1H-indazol-7-yl)-4-oxo-7-(2-(2,2,3,3,3-pentafluoropropoxy)ethoxy)-3,4-dihydropyrido[2,3-d]pyrimidin-2-yl)-2-(3,5-difluorophenyl)ethyl)-2-((3bS,4aR)-3-(difluoromethyl)-5,5-difluoro-3b,4,4a,5-tetrahydro-1H-cyclopropa[3,4]cyclopenta[1,2-c]pyrazol-1-yl)acetamide] are 10.35 and over 100 nM.
